28 molecules from patent US12590083B2, “Inhibitors of spinster homolog 2 (SPNS2) for use in therapy” (University of Virginia Patent Foundation, priority 2019, dated 2026) can be followed below.

Structures are written as SMILES. Structures can show the parent of a compound that is named as a salt.

For this test, the target named is T1, human SPNS2 (Homo sapiens, UniProt Q8IVW8).
T1 construct: expressed in transfected cells; host or cells: Saccharomyces cerevisiae strain with forced expression of a mammalian SphK and human SPNS2
T1 sequence (Q8IVW8 1-549): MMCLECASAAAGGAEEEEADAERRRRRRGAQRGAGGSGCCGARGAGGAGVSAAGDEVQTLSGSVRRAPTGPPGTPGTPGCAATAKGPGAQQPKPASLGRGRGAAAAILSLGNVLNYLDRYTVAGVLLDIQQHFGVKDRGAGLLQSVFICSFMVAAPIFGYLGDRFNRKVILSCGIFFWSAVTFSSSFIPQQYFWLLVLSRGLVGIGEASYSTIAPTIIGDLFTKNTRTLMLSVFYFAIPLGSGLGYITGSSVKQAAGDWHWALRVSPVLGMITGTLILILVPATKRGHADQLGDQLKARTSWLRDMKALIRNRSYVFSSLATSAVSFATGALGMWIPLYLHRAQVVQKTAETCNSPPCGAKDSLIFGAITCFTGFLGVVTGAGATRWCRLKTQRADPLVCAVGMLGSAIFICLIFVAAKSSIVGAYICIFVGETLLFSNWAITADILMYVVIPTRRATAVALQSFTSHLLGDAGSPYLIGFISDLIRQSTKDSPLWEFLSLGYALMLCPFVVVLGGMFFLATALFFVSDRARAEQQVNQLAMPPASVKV
As to the kind of experiment: S1P transporter assay: growth of S. cerevisiae strain with forced expression of a mammalian SphK and human SPNS2. Type of test: cell-based. Particulars: in vitro inhibition of SPNS2; growth of S. cerevisiae strain expressing mammalian SphK and human SPNS2; compounds as their pharmaceutical salts. From the text: Transporter assays are vectorial and, therefore, require measurement of the transported analyte in different compartments. The assay of S1P transporters is problematic because S1P is exported, but not imported, by SPNS2, which obviates measuring uptake of mass- or radio-labeled S1P into transporter-expressing cells.
To assay for SPNS2 inhibitor hits, we took advantage of the growth inhibitory effects of excessive levels of phosphorylated Long Chain Base (phospho-LCB) levels on the budding yeast, S. cerevisiae (Kharel Y, et al. Saccharomyces cerevisiae as a platform for assessing sphingolipid lipid kinase inhibitors. PLoS One 13, e0192179 (2018) PMC5908134). Yeast lack the desaturase that converts dihydroceramide to ceramide and, therefore, have neither sphingosine nor S1P. Rather, yeast have the reduced form, dihydrosphingosine, and the 4-hydroxyl analog, phytosphingosine and their respective phosphates. Like all eukaryotes, the yeast synthesizes (via LCB kinases (SphKs)) and degrades (via phospho-LCB lyase and phosphatase) phospho-LCBs, (dhS1P, phytoS1P). Yeast lack phospho-LCB transporters such as SPNS2, which are found only in vertebrates. To assess inhibition of SPNS2 in vitro, we used a strain of S. cerevisiae wherein expression of a mammalian SphK and human SPNS2 were forced. SPNS2 inhibitors decrease the growth of this strain. Table 2 below presents in vitro inhibition data against SPNS2 for exemplary compounds, presented here as their pharmaceutical salts, of the disclosure (A≤2 μM, B>2 μM).

What is called IC50 is the concentration that inhibits the measured activity by half. On to `N=C(N)N1CCC[C@@H](c2nc(-c3ccc(OCc4ccc(C(F)(F)F)cc4)c(C(F)(F)F)c3)no2)C1` [Compound 23h, (R)-3-(3-(3-(trifluoromethyl)-4-((4-(trifluoromethyl)benzyl)oxy)phenyl)-1,2,4-oxadiazol-5-yl)piperidine-1-carboximidamide hydrochloride], for which the IC50 is above 2 µM.
On to `CCCCCCCCCCc1ccc(-c2noc([C@@H]3CCN(C(=N)N)C3)n2)cc1` [Compound 7g, (R)-amino(3-(3-(4-decylphenyl)-1,2,4-oxadiazol-5-yl)pyrrolidin-1-yl)methaniminium chloride], for which the IC50 was above 2 µM.
Then `CCCCCCCCCc1ccc(-c2noc([C@@H]3CCN(C(=N)N)C3)n2)cc1` [Compound 7xb, (R)-3-(3-(4-nonylphenyl)-1,2,4-oxadiazol-5-yl)pyrrolidine-1-carboximidamide hydrochloride], with at most 2 µM; and `Clc1ccccc1Nc1ccc(-c2noc([C@@H]3CCNC3)n2)cn1` [Compound 13e, (R)—N-(2-chlorophenyl)-5-(5-(pyrrolidin-3-yl)-1,2,4-oxadiazol-3-yl)pyridin-2-amine hydrochloride], with above 2 µM; and `C/C(=N\OC(C)c1ccccc1)c1ccc(-c2noc([C@@H]3CCN(C(=N)N)C3)n2)cc1` (stereo partly shown) [Compound 40f, hydrochloride], with above 2 µM.
On to `CCCCCCCCCc1ccc(-c2noc([C@@H]3CCCN(C(=N)N)C3)n2)cc1C(F)(F)F` [Compound 30d, (R)-3-(3-(4-nonyl-3-(trifluoromethyl)phenyl)-1,2,4-oxadiazol-5-yl)piperidine-1-carboximidamide hydrochloride], for which the IC50 is at most 2 µM.
Next, `CCCCc1ccc(Nc2ccc(-c3noc([C@@H]4CCNC4)n3)cn2)cc1` [Compound 13i, (R)—N-(4-butylphenyl)-5-(5-(pyrrolidin-3-yl)-1,2,4-oxadiazol-3-yl)pyridin-2-amine hydrochloride]: above 2 µM.
Consider `CCCCCCCCOc1ccc(-c2noc(C3CN(C(=N)N)C3)n2)cc1C(F)(F)F` [Compound 23a, 3-(3-(4-(octyloxy)-3-(trifluoromethyl)phenyl)-1,2,4-oxadiazol-5-yl)azetidine-1-carboximidamide hydrochloride], for which the IC50 was at most 2 µM.
Take `C/C(=N\OCc1cccc(-c2ccccc2)c1)c1ccc(-c2noc([C@@H]3CCN(C(=N)N)C3)n2)cc1` [Compound 40e, (R)-3-(3-(4-(1-(([1,1′-biphenyl]-3-ylmethoxy)imino)ethyl)phenyl)-1,2,4-oxadiazol-5-yl)pyrrolidine-1-carboximidamide hydrochloride]: the IC50 is at most 2 µM.
As for `CCCCCCCO/N=C(\C)c1ccc(-c2noc([C@@H]3CCN(C(=N)N)C3)n2)cc1` [Compound 40i, (R)-3-(3-(4-(1-((heptyloxy)imino)ethyl)phenyl)-1,2,4-oxadiazol-5-yl)pyrrolidine-1-carboximidamide hydrochloride], the IC50 is at most 2 µM.
On to `CCCCCCCCCCCc1ccc(-c2noc([C@@H]3CCCN(C(=N)N)C3)n2)cc1C(F)(F)F` [Compound 30f, (R)-3-(3-(3-(trifluoromethyl)-4-undecylphenyl)-1,2,4-oxadiazol-5-yl)piperidine-1-carboximidamide hydrochloride], for which the IC50 was above 2 µM.
Regarding `CCCCCCCCCCc1ccc(-c2noc([C@@H]3CCCNC3)n2)cc1C(F)(F)F` [Compound 28e, (R)-3-(4-decyl-3-(trifluoromethyl)phenyl)-5-(piperidin-3-yl)-1,2,4-oxadiazole hydrochloride], the IC50 was above 2 µM.
Next, `CCCCCCCCCCc1ccc(-c2noc([C@@H]3CCCN(C(=N)N)C3)n2)cc1` [Compound 7h, (R)-amino(3-(3-(4-decylphenyl)-1,2,4-oxadiazol-5-yl)piperidin-1-yl)methaniminium chloride]: above 2 µM; `CCCCCCCCCCc1ccc(-c2noc([C@H]3CCNC3)n2)cc1` [Compound 5e, (S)-3-(3-(4-decylphenyl)-1,2,4-oxadiazol-5-yl)pyrrolidin-1-ium 2,2,2-trifluoroacetate]: above 2 µM; `CCCCCCCCCCc1ccc(-c2noc(C3CN(C(=N)N)C3)n2)cc1C(F)(F)F` [Compound 30b, 3-(3-(4-decyl-3-(trifluoromethyl)phenyl)-1,2,4-oxadiazol-5-yl)azetidine-1-carboximidamide hydrochloride]: at most 2 µM.
Next, `N=C(N)N1CC[C@@H](c2nc(-c3ccc(N4CCCCC4)nc3)no2)C1` [Compound 15a, (R)-3-(3-(6-(piperidin-1-yl)pyridin-3-yl)-1,2,4-oxadiazol-5-yl)pyrrolidine-1-carboximidamide hydrochloride]: above 2 µM.
Next, `CCCCCCCCCCc1ccc(-c2noc([C@H]3CCCN(C(=N)N)C3)n2)cc1` [Compound 7f, (S)-amino(3-(3-(4-decylphenyl)-1,2,4-oxadiazol-5-yl)piperidin-1-yl)methaniminium chloride]: at most 2 µM; `C/C(=N\OCc1ccc(Br)cc1)c1ccc(-c2noc([C@@H]3CCNC3)n2)cc1` [Compound 38n, (R)-1-(4-(5-(pyrrolidin-3-yl)-1,2,4-oxadiazol-3-yl)phenyl)ethan-1-one O-(4-bromobenzyl) oxime hydrochloride]: at most 2 µM.
Consider `C/C(=N\OCc1cc(C(F)(F)F)cc(C(F)(F)F)c1)c1ccc(-c2noc([C@@H]3CCNC3)n2)cc1` [Compound 38b, (R)-1-(4-(5-(pyrrolidin-3-yl)-1,2,4-oxadiazol-3-yl)phenyl)ethan-1-one O-(3,5-bis(trifluoromethyl)benzyl) oxime hydrochloride], for which the IC50 was at most 2 µM.
On to `CCCCCO/N=C(\C)c1ccc(-c2noc([C@@H]3CCN(C(=N)N)C3)n2)cc1` [Compound 40l, (R)-3-(3-(4-(1-((pentyloxy)imino)ethyl)phenyl)-1,2,4-oxadiazol-5-yl)pyrrolidine-1-carboximidamide hydrochloride], for which the IC50 is above 2 µM.
Next, `CCCCCCCCCCc1ccc(-c2noc(C3CN(C(=N)N)C3)n2)cc1` [Compound 7b, 3-(3-(4-decylphenyl)-1,2,4-oxadiazol-5-yl)azetidine-1-carboximidamide hydrochloride]: at most 2 µM.
Next, `CCCCCCCCCCc1ccc(-c2noc(C[C@@H]3CCN(C(=N)N)C3)n2)cc1` [Compound 7p, (S)-3-((3-(4-decylphenyl)-1,2,4-oxadiazol-5-yl)methyl)pyrrolidine-1-carboximidamide 2,2,2-trifluoroacetate]: at most 2 µM; `CCCCCCCOc1ccc2cc(-c3noc([C@@H]4CCNC4)n3)ccc2c1` [Compound 5aa, (R)-3-(6-(heptyloxy)naphthalen-2-yl)-5-(pyrrolidin-3-yl)-1,2,4-oxadiazole hydrochloride]: at most 2 µM.
On to `CCCCCCCCCOc1ccc(-c2noc(C3CN(C(=N)N)C3)n2)cc1C(F)(F)F` [Compound 23b, 3-(3-(4-(nonyloxy)-3-(trifluoromethyl)phenyl)-1,2,4-oxadiazol-5-yl)azetidine-1-carboximidamide hydrochloride], for which the IC50 is at most 2 µM.
Then `CCCCCCCOc1ccc2cc(-c3noc([C@@H]4CCN(C(=N)N)C4)n3)ccc2c1` [Compound 7kk, (R)-3-(3-(6-(heptyloxy)naphthalen-2-yl)-1,2,4-oxadiazol-5-yl)pyrrolidine-1-carboximidamide hydrochloride], with at most 2 µM; and `C/C(=N\OCc1ccc(Br)cc1)c1ccc(-c2noc([C@@H]3CCN(C(=N)N)C3)n2)cc1` [Compound 40n, (R)-3-(3-(4-(1-(((4-bromobenzyl)oxy)imino)ethyl)phenyl)-1,2,4-oxadiazol-5-yl)pyrrolidine-1-carboximidamide hydrochloride], with above 2 µM; and `CCCCCCCCCO/N=C(\C)c1ccc(-c2noc([C@@H]3CCN(C(=N)N)C3)n2)cc1` [Compound 40j, (R)-3-(3-(4-(1-((nonyloxy)imino)ethyl)phenyl)-1,2,4-oxadiazol-5-yl)pyrrolidine-1-carboximidamide hydrochloride], with above 2 µM.
As for `CCCCCCCCCCc1ccc(-c2noc(C[C@@H]3CCNC3)n2)cc1C(F)(F)F` [Compound 28g, (S)-3-(4-decyl-3-(trifluoromethyl)phenyl)-5-(pyrrolidin-3-ylmethyl)-1,2,4-oxadiazole hydrochloride], the IC50 is above 2 µM.
